These are literature values, as cited in patent US20220409628A1, “18-MC FOR TREATING OBESITY” (Mind Medicine, Inc., priority 2021, published 2022).

SMILES strings stand for the structures.

The subject of series [1] is extracellular dopamine in the nucleus accumbens. Conditions: both 20 and 40 mg/kg, ghrelin 2 μg intraventral tegmental area.
The subject of series [2] is female rats. The conditions noted are these: pretreatment 20 mg/kg i.p., ghrelin 1 μg lateral ventricle.
Series [3] relates to male rats. The conditions noted are these: repeated administration 20 mg/kg i.p.
Series [4] relates to rats. The conditions noted are these: acute administration, 10-40 mg/kg i.p.
The subject of series [5] is rats. The conditions noted are these: unlimited access to sucrose (30%), chronic treatment 20 mg/kg i.p.
In series [6] the test system is ghrelin-treated rats.
The conditions of series [7]: U.S. Pat. No. 6,780,871 to Glick, et al.
Series [8] has as its system rats. Conditions: acute administration.
The conditions of series [9]: in vivo.

On to `COCC[C@H]1CC2CN3CCc4c([nH]c5ccccc45)[C@](C(=O)OC)(C2)[C@H]13` [18-MC, 18-methoxycoronaridine], for which the “ghrelin-induced increases in extracellular dopamine in the nucleus accumbens” value in [1] is listed as “prevented”. In series [2], the “ghrelin-induced increases in sucrose (5%) intake” value is reported as “blocked ghrelin-induced increases”. Further, the weight gain result in series [3] (both sucrose-consuming and control animals) is “attenuated weight gain”. In series [3], the “food or fluid intake” value was “without altering food or fluid intake”. Further, the “operant responding for sucrose” value in series [4] is recorded as “reduced operant responding for sucrose”. In series [5], the consumption of sucrose result is given as “reduced consumption of sucrose”, the fat deposition result is reported as “decreased fat deposition”, the food intake result was “not altering food intake” and the “sucrose-induced increases in body weight” value is “prevented sucrose-induced increases in body weight”. Also, in [6], the deposition of fat entry is “no effect”; the “serum levels of glucose, triglycerides, and cholesterol” value was “no effect”. For the same molecule, the “self-administration of morphine, cocaine, methamphetamine, nicotine, and sucrose” value in series [7] was “reducing self-administration”. Moreover, the “ad libitum ingestion of sucrose, saccharin, and saline” value in series [8] (10-40 mg/kg i.p.) is on record as “decreased ad libitum ingestion”. The “consumption of water when palatable fluids were not available” value in series [8] (highest dose) is recorded as “reduced consumption of water”. The “conditioned taste aversion to sucrose” value in series [9] is “does not induce”.
